Here are results for eleven compounds from PMC10137179, “Assessment of Covalently Binding Warhead Compounds in the Validation of the Cytomegalovirus Nuclear Egress Complex as an Antiviral Target” (Cells, 2023).

Read-outs that look alike come from different tables or passages of the source.

The nature of one series: in vitro. It is filed as cell-based, human. The conditions noted are these: human. Here is the method:
(§1) Cytotoxicity of the analyzed compounds was determined by the Neutral Red dye uptake assay. A total of 1.35 × 10^5 HFFs per well were seeded in 96-well plates 1 d prior to analysis, cultivated overnight until cells were confluent and then incubated with compounds for 7 days. The assay was performed as described previously using 40 μg/mL Neutral Red (Sigma Aldrich). The quantity of dye incorporation was determined using the Victor X4 microplate reader (PerkinElmer, Waltham, MA, USA) by fluorescence measurement at 560/630 nm for excitation/emission, respectively. To assess antiviral activity of compounds, HFFs seeded in 96-well plates (1.35 × 10^5 HFFs per well) were infected with HCMV AD169-GFP or TB40-IE2-YFP to reach 25–50% infected cells at 7 days post-infection (d p.i.). After incubation with the infectious inoculum for 1.5 h at 37 °C, compounds were added in serial dilutions. At 7 d p.i., cells were fixed for 10 min at room temperature using 10% formalin. Finally, cells were washed once with PBS followed by automated fluorescence quantitation.

Another series has as its system HCMV AD169-GFP. The experiment in a line: microbe, parasite or virus in culture. It is filed as cell-based, human cytomegalovirus (HCMV). The following applies: for SI: selectivity index CC50/EC50, AD169-GFP. Here is the method: as §1
Seeking for a novel group of potential antiviral agents, small molecules with covalent protein-binding activity were investigated. These small molecules, originally developed as kinase inhibitors, carry a so-called warhead moiety as an important functional group, such as the prototype afatinib (Figure 1A, red circle). In this study, a series of newly generated warhead compounds (most of which are the property of B.K./Lead Discovery Center, Dortmund, Germany) were used for an evaluation of putative antiviral and core NEC-inhibitory properties. In a first step, the antiviral activity of warheads was analyzed against HCMV TB40-IE2-YFP (Figure 1B) and AD169-GFP (Figure 1C). To this end, HFFs were infected with either of the two viral strains before the GFP or YFP reporter signals were measured at 7 d p.i. (in parallel, putative compound cytotoxicity was determined by Neutral Red assay). The HCMVs AD169-GFP and TB40-IE2-YFP, based on BAC-derived recombinants of the laboratory strains AD169 and TB40, respectively, were both propagated on HFFs, and the produced stocks were then used as two reporter viruses for the assessement of antiviral drug activity. While strain AD169 is mainly restricted in its tropism to fibroblasts, TB40 tropism can be extended to fibroblasts and epithelial and endothelial cells. Here, the use of two strains was intended to illustrate the assumption that antiviral activity of these warhead compounds may be directed to conserved viral target proteins, thus pointing out a minor impact of strains.
(A) Chemical structure of a clinically approved prototype of covalently binding warhead inhibitors, […], afatinib/Gilotrif®. The red circle identifies a functionally active α-, β-unsaturated carbonyl group. (B) At 7 d p.i., compounds were analyzed for their cytotoxicity (orange) and antiviral activity (blue) during HCMV infection, using TB40-IE2-YFP as a reporter virus. Cell viability was assessed through Neutral Red staining of uninfected cells. Measurements were performed in quadruplicate (YFP fluorometry) or triplicate (Neutral Red assay), and standard deviations of mean values are given; EC50, CC50 and SI values are indicated accordingly. (C) In a parallel series of analyses, HCMV AD169-GFP was used as another reporter virus representing a second viral strain. […] HCMV AD169-GFP-infected HFFs were treated with 0.1 µM to 50 µM of the compounds (in parallel Neutral Red assay, 0.1 µM to 100 µM), before the signal assessments were performed at 7 d p.i.

Another series concerns HFFs. Description: in vitro. The series is classed as cell-based, human. The method, then: as §1
Series [1] deals with HCMV pUL53 nuclear rim localization. The experiment in a line: Confocal imaging of pUL53 localization in HCMV AD169-infected HFFs. It is filed as cell-based. The method, then: HFF or HFF-UL50 cells, either Dox-induced or uninduced, were seeded in 6-well plates with a density of 2 × 10^5 cells per well, grown on coverslips and infected with HCMV AD169 or AD169 ∆UL50-ΣUL53. For infection experiments with the recombinant virus, different Shield-1 and Dox conditions were analyzed. Antivirals were added post-infection as described for the experiments. For transfection experiments, HeLa cells were seeded on coverslips in 6-well plates with a density of 3.25 × 10^5 cells per well for cotransfection with the indicated NEC expression plasmids (HSV-1 HA-UL34 + Flag-UL31, HCMV pUL50-HA + pUL53-Flag and EBV HA-BFRF1 + Flag-BFLF2). At indicated time points after virus infection, or 3 days post-transfection, cells were fixed, applied for IF staining as described previously and analyzed using a TCS SP5 confocal laser-scanning microscope with Leica LAS AF software (Leica Microsystems, Wetzlar, Germany). […] The device features a Leica photomultiplier tube (PMT) and a hybrid detector (HyD). Images were further processed using Photoshop CS5 (Adobe Inc., San José, CA, USA). Primary and secondary antibodies used for staining were mAb-UL53.01 (kindly provided by S. Jonjic and T. Lenac Rovis, Rijeka, Croatia), mAb-lamin A/C (ab108595, Abcam, Cambridge, UK), mAb-HA (Clone 7, H9658, Sigma-Aldrich, St. Louis, MO, USA), pAb-Flag (F7425, Sigma-Aldrich, St. Louis, MO, USA), anti-mouse Alexa 555 (A21422, Thermo Fisher Scientific, Waltham, MA, USA) and anti-rabbit Alexa 488 (A11034, Thermo Fisher Scientific, Waltham, MA, USA). Microscopic counting was performed for quantitation of colocalization patterns of two different proteins, as achieved by counting 50 cells per biological triplicate.

The test system of another series is HCMV TB40-IE2-YFP. Description: microbe, parasite or virus in culture. It is filed as cell-based, human cytomegalovirus (HCMV). The method, then:
Cytotoxicity of the analyzed compounds was determined by the Neutral Red dye uptake assay. A total of 1.35 × 10^5 HFFs per well were seeded in 96-well plates 1 d prior to analysis, cultivated overnight until cells were confluent and then incubated with compounds for 7 days. The assay was performed as described previously using 40 μg/mL Neutral Red (Sigma Aldrich). The quantity of dye incorporation was determined using the Victor X4 microplate reader (PerkinElmer, Waltham, MA, USA) by fluorescence measurement at 560/630 nm for excitation/emission, respectively. […] Finally, cells were washed once with PBS followed by automated fluorescence quantitation.
Seeking for a novel group of potential antiviral agents, small molecules with covalent protein-binding activity were investigated. […] In a first step, the antiviral activity of warheads was analyzed against HCMV TB40-IE2-YFP (Figure 1B) and AD169-GFP (Figure 1C). To this end, HFFs were infected with either of the two viral strains before the GFP or YFP reporter signals were measured at 7 d p.i. (in parallel, putative compound cytotoxicity was determined by Neutral Red assay). […]
(A) Chemical structure of a clinically approved prototype of covalently binding warhead inhibitors, LDC580, afatinib/Gilotrif®. […] Cell viability was assessed through Neutral Red staining of uninfected cells. […]

Series [2] deals with T1, pUL50–pUL53 interaction (LgBiT::UL53(1–87)-Flag + SmBiT::UL50-HA) (Human cytomegalovirus, UniProt P16791).
T1 construct: expressed in transfected cells; host or cells: 293T
The series is classed as cell-based. The following applies: 293T cells, 5×, 1× or 0.2× anti-HCMV EC50 levels, truncated LgBiT::UL53(1–87)-Flag.

Series [3] deals with T2, pUL50–pUL53 interaction (LgBiT::UL53-Flag + SmBiT::UL50-HA) (Human cytomegalovirus, UniProt P16791).
T2 construct: expressed in transfected cells; host or cells: 293T
It is filed as cell-based. The conditions noted are these: 293T cells, 5×, 1× or 0.2× anti-HCMV EC50 levels, full-length LgBiT::UL53-Flag.

Setting [4] is: Human betaherpesvirus 5, AD169, 168 h, clinically relevant warheads, 0.1 µM to 50 µM, AD169-GFP-infected HFFs, 7 d p.i.
[5] abbreviates: AD169-GFP-infected HFFs, 7 d p.i., 0.1 µM to 50 µM.
Where [6] appears, read: HFFs infected with HCMV AD169 (MOI 0.1), 5 d p.i.

T1 sequence (P16791 whole entry): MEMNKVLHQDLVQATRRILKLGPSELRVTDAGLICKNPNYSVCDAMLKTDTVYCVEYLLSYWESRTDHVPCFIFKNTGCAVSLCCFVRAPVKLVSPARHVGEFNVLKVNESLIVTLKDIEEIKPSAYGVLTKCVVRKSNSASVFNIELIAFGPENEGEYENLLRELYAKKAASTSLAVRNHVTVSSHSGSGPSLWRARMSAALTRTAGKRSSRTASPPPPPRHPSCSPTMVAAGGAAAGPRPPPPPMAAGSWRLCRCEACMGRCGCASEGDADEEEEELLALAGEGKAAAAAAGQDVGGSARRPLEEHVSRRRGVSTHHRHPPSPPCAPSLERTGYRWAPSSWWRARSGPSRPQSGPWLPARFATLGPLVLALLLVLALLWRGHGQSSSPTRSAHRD
T2 sequence (P16791 whole entry): as above

One may read the CC50 as the concentration giving 50% cytotoxicity. As usually defined, the EC50 is the midpoint of the concentration-response curve. Consider `CCOc1cc2ncc(C#N)c(Nc3ccc(OCc4ccccn4)c(Cl)c3)c2cc1NC(=O)/C=C/CN(C)C` [neratinib], for which, in the series “in vitro” (CC50), it took 37 ± 1 µM to reach half-maximal cytotoxicity (CC50 at 7 days). In the series with HCMV AD169-GFP (setting [4]), this compound registered an EC50 of 0.3 ± 0.1 µM.
In the case of `C=CC(=O)N1CCN(c2nc(=O)n(-c3c(C)ccnc3C(C)C)c3nc(-c4c(O)cccc4F)c(F)cc23)[C@@H](C)C1` [sotorasib], the 50% cytotoxic concentration (CC50) at 7 days in the series “in vitro” (CC50) was found to be 95 ± 12 µM. Further, the “antiviral activity (in words)” value in the series on HCMV AD169-GFP (setting [5]) is listed as “no notable antiviral activity”. Also, the EC50 with HCMV AD169-GFP (setting [4]) is more than 50 µM. The SI result in the series with HCMV AD169-GFP (clinically relevant warheads) is “inactive”.
In the case of `C=C1C(=O)O[C@H]2[C@H]1CC/C(C)=C/CC[C@@]1(C)O[C@@H]21` [parthenolide], in “in vitro” (CC50), the midpoint of cytotoxicity, the CC50 at 7 days, lay at 9 ± 0.4 µM. Further, the “antiviral activity (in words)” value in the series on HCMV AD169-GFP (setting [5]) is given as “no notable antiviral activity”. This compound also had an EC50 with HCMV AD169-GFP (setting [4]) of 6.7 ± 3.4 µM.
`CCOc1cc(/C=c2\sc3n(c2=O)C(c2ccccc2OC)C(C(C)=O)=C(C)N=3)ccc1O` (stereo not drawn) [LDC492]: the cytotoxic concentration (CC50) with HFFs is more than 10 µM. Besides, the concentration for a half-maximal effect (EC50) in the series with HCMV AD169-GFP (HFFs infected with HCMV AD169-GFP, 7 d p.i., investigational LDC warheads, read-out: EC50) is 8.9 ± 6.6 µM; in the series on HCMV TB40-IE2-YFP (HFFs infected with HCMV TB40-IE2-YFP, 7 d p.i., YFP fluorometry, read-out: EC50), more than 10 µM. Besides, in series [1] (HCMV AD169 MOI 0.1, 5 d p.i., concentrations of partial-grade antiviral activity, 50 cells counted per biological triplicate), the “cells with partial or predominant dot-like localization of pUL53 within the nucleoplasm” value is “more than 50%”.
In the series “in vitro”, `COC[C@H]1OC(=O)c2coc3c2[C@@]1(C)C1=C(C3=O)[C@@H]2CCC(=O)[C@@]2(C)C[C@H]1OC(C)=O` [wortmannin] displayed a CC50 at 7 days of more than 100 µM. Besides, the “antiviral activity (in words)” value with HCMV AD169-GFP (setting [5]) is reported as “no notable antiviral activity”. This compound had an EC50 in the series with HCMV AD169-GFP (Human betaherpesvirus 5, AD169, 168 h) of more than 50 µM. Further, in the series with HCMV AD169-GFP (clinically relevant warheads), the SI entry was “inactive”.
`CCN(CC)C(=O)/C(C#N)=C/c1cc(O)c(O)c([N+](=O)[O-])c1` [entacapone] showed a CC50 at 7 days in “in vitro” (CC50) of 93 ± 4 µM. The “antiviral activity (in words)” value in the series on HCMV AD169-GFP (setting [5]) is “no notable antiviral activity”. For the same compound, in the series on HCMV AD169-GFP (setting [4]), the EC50 was more than 50 µM. Also, the SI entry in the series on HCMV AD169-GFP (clinically relevant warheads) was “inactive”.
For the compound `C=C1C(=O)O[C@@H]2C[C@@]3(C)CCC[C@H](C)C3=C[C@H]12` [alantolactone], it took 23 ± 5 µM to reach half-maximal cytotoxicity in the series “in vitro” (CC50 at 7 days). The “inhibitory effect on NanoBiT interaction signal (in words)” value in series [2] and in series [3] was “very minor or no effects” in each case. This compound had a concentration for a half-maximal effect (EC50) in the series with HCMV AD169-GFP (setting [4]) of 3.2 ± 1.3 µM.
Regarding `C=CC(=O)Nc1cc(Nc2nccc(-c3cn(C)c4ccccc34)n2)c(OC)cc1N(C)CCN(C)C` [osimeritinib], the cytotoxic concentration (CC50) at 7 days in the series “in vitro” (clinically relevant warheads, 0.1 µM to 100 µM, Neutral Red, uninfected HFFs, 7 d, read-out: CC50) is 23 µM. Moreover, the “inhibitory effect on NanoBiT interaction signal (in words)” value in series [2] and in series [3] was “very minor or no effects” throughout. In the series with HCMV AD169-GFP (setting [4]), the EC50 came to 1 ± 0.8 µM.
With `CN(C)C/C=C/C(=O)Nc1cc2c(Nc3ccc(F)c(Cl)c3)ncnc2cc1O[C@H]1CCOC1` [LDC580, afatinib], the 50% cytotoxic concentration (CC50) at 7 days in “in vitro” (CC50) was more than 10 µM. In addition, the CC50 with HFFs (human, 7 days) is approximately 9 µM. The EC50 in the series on HCMV AD169-GFP (Human betaherpesvirus 5, AD169, 168 h, HFFs infected with HCMV AD169-GFP, 7 d p.i., investigational LDC warheads) was determined as 0.6 µM; in the series on HCMV TB40-IE2-YFP (Human betaherpesvirus 5, 168 h) it was 0.8 µM. Besides, the “pUL53 localization (in words)” value in series [1] (setting [6]) is “no comparable effect”.
Regarding `COC(=O)[C@]12CCC(C)(C)C[C@H]1[C@H]1C(=O)C=C3[C@@]4(C)C=C(C#N)C(=O)C(C)(C)[C@@H]4CC[C@@]3(C)[C@]1(C)CC2` [CDDO-Me, 2-cyano-3,12-dioxooleana-1,9(11)-dien-28-oic acid methyl ester], the CC50 at 7 days in the series “in vitro” was more than 0.8 µM. Further, in the series with HCMV AD169-GFP (setting [5]), the “antiviral activity (in words)” value is “no notable antiviral activity”. This compound also registered a half-maximal effective concentration (EC50) in the series with HCMV AD169-GFP (setting [4]) of less than 0.4 µM.
For `CC(C)Nc1nc2cc(Cl)c(Cl)cc2n1[C@H]1O[C@@H](CO)[C@H](O)[C@@H]1O` [MBV, maribavir], in series [1] (setting [6]), the “pUL53 localization (in words)” value is on record as “predominant dot-like structures”. Besides, in series [1] (HFFs infected with HCMV AD169 (MOI 0.1), 5 d p.i., called preliminary), the “intranucleoplasmic coaggregation of lamin A/C (in words)” value is “also visible”.
